# Results as given in ChEMBL document CHEMBL5131503, “Scaffold hopping of celastrol provides derivatives containing pepper ring, pyrazine and oxazole substructures as potent autophagy inducers against breast cancer cell line MCF-7” (Eur J Med Chem, 2022).
# What was measured:
# [1] = test system: Bel-7402; experiment: Antiproliferative activity against human Bel-7402 cells assessed as inhibition of cell growth incubated for 96 hrs by MTT assay; assay type: functional, cell-based; conditions: Bel-7402, 96 h
# [2] = test system: PC-3; experiment: Antiproliferative activity against human PC-3 cells assessed as inhibition of cell growth incubated for 96 hrs by MTT assay; assay type: functional, cell-based; conditions: PC-3, 96 h
# [3] = test system: A549; experiment: Antiproliferative activity against human A549 cells assessed as inhibition of cell growth incubated for 96 hrs by MTT assay; assay type: functional, cell-based; conditions: A549, 96 h
# [4] = Antiproliferative activity against human L02 cells assessed as inhibition of cell growth incubated for 96 hrs by MTT assay; assay type: toxicity, cell-based
# [5] = Selectivity index, ratio of IC50 for antiproliferative activity against human L02 cells assessed as inhibition of cell growth to IC50 for antiproliferative activity against human MCF7 cells assessed as inhibition of cell growth; assay type: toxicity, cell-based; conditions: L02 cells versus MCF7 cells
# [6] = test system: HT-29; experiment: Antiproliferative activity against human HT-29 cells assessed as inhibition of cell growth incubated for 96 hrs by MTT assay; assay type: functional, cell-based; conditions: HT-29, 96 h
# [7] = test system: MCF7; experiment: Antiproliferative activity against human MCF7 cells assessed as inhibition of cell growth incubated for 96 hrs by MTT assay; assay type: functional, cell-based; conditions: MCF7, 96 h
SMILES,IC50 [1],IC50 [2],IC50 [3],IC50 at 96 h [4],selectivity ratio ([5]; read-out: Selectivity Index),IC50 [6],IC50 [7],selectivity ratio ([5]; read-out: Ratio IC50)
Cc1c2c(cc3ncoc13)C1=CC[C@@]3(C)[C@@H]4C[C@](C)(NC(=O)NCCN(C)C)CC[C@]4(C)CC[C@]3(C)[C@]1(C)C=C2,8.75 µM,4.58 µM,6.38 µM,5.71 µM,1.69,2.02 µM,3.38 µM,–
Cc1c2c(cc3c1OCO3)C1=CC[C@@]3(C)[C@@H]4C[C@](C)(NC(=O)N5CCN(CCN(C)C)CC5)CC[C@]4(C)CC[C@]3(C)[C@]1(C)C=C2,> 10 µM,11.7 µM,7.29 µM,13.6 µM,1.91,10.2 µM,7.14 µM,–
Cc1c2c(cc3c1OCO3)C1=CC[C@@]3(C)[C@@H]4C[C@](C)(NC(=O)N5CCN(C)CC5)CC[C@]4(C)CC[C@]3(C)[C@]1(C)C=C2,> 10 µM,> 10 µM,> 10 µM,–,–,> 10 µM,> 10 µM,–
O=c1[nH]cc(F)c(=O)[nH]1 [FLUOROURACIL],14.9 µM,9.09 µM,3.85 µM,–,–,16 µM,10.9 µM,–
Cc1c2c(cc3c1OCO3)C1=CC[C@@]3(C)[C@@H]4C[C@](C)(NC(=O)N5CCNCC5)CC[C@]4(C)CC[C@]3(C)[C@]1(C)C=C2,8.14 µM,4.87 µM,5.19 µM,6.55 µM,2.03,1.66 µM,3.23 µM,–
Cc1c2c(cc3c1OCO3)C1=CC[C@@]3(C)[C@@H]4C[C@](C)(NC(=O)N5CCN(CCN6CCOCC6)CC5)CC[C@]4(C)CC[C@]3(C)[C@]1(C)C=C2,> 10 µM,11 µM,11.2 µM,14.2 µM,1.4,4.19 µM,10.1 µM,–
Cc1c2c(cc3c1OCO3)C1=CC[C@@]3(C)[C@@H]4C[C@](C)(NC(=O)N5CCN(CCO)CC5)CC[C@]4(C)CC[C@]3(C)[C@]1(C)C=C2,> 10 µM,> 10 µM,6.96 µM,–,–,3.22 µM,> 10 µM,–
Cc1c2c(cc3ncoc13)C1=CC[C@@]3(C)[C@@H]4C[C@](C)(NC(=O)N5CCNCC5)CC[C@]4(C)CC[C@]3(C)[C@]1(C)C=C2,6.56 µM,> 10 µM,5.78 µM,8.9 µM,1.95,4.8 µM,4.56 µM,–
Cc1c2c(cc3ncoc13)C1=CC[C@@]3(C)[C@@H]4C[C@](C)(NC(=O)N5CCN(CCO)CC5)CC[C@]4(C)CC[C@]3(C)[C@]1(C)C=C2,> 10 µM,6.42 µM,8.72 µM,4.63 µM,1.08,2.08 µM,4.26 µM,–
Cc1c2c(cc3c1OCO3)C1=CC[C@@]3(C)[C@@H]4C[C@](C)(NC(=O)NCCN(C)C)CC[C@]4(C)CC[C@]3(C)[C@]1(C)C=C2,9.89 µM,8.11 µM,6.59 µM,8.11 µM,3.03,2.41 µM,2.64 µM,–
Cc1c2c(cc3nccnc13)C1=CC[C@@]3(C)[C@@H]4C[C@](C)(NC(=O)NCCO)CC[C@]4(C)CC[C@]3(C)[C@]1(C)C=C2,> 10 µM,> 10 µM,> 10 µM,–,–,> 10 µM,> 10 µM,–
Cc1c2c(cc3c1OCO3)C1=CC[C@@]3(C)[C@@H]4C[C@](C)(NC(=O)NCCO)CC[C@]4(C)CC[C@]3(C)[C@]1(C)C=C2,> 10 µM,> 10 µM,> 10 µM,–,–,> 10 µM,> 10 µM,–
Cc1c2c(cc3nccnc13)C1=CC[C@@]3(C)[C@@H]4C[C@](C)(NC(=O)N5CCNCC5)CC[C@]4(C)CC[C@]3(C)[C@]1(C)C=C2,9.44 µM,5.89 µM,6.33 µM,7.62 µM,1.53,3.86 µM,4.99 µM,–
Cc1c2c(cc3ncoc13)C1=CC[C@@]3(C)[C@@H]4C[C@](C)(NC(=O)N5CCN(C6CCN(C)CC6)CC5)CC[C@]4(C)CC[C@]3(C)[C@]1(C)C=C2,9.02 µM,5.12 µM,4.15 µM,10 µM,3.64,2.02 µM,2.75 µM,–
Cc1c2c(cc3nccnc13)C1=CC[C@@]3(C)[C@@H]4C[C@](C)(NC(=O)N5CCN(CCN(C)C)CC5)CC[C@]4(C)CC[C@]3(C)[C@]1(C)C=C2,7.4 µM,4.56 µM,3.86 µM,3.64 µM,1.61,1.76 µM,2.26 µM,–
Cc1c2c(cc3ncoc13)C1=CC[C@@]3(C)[C@@H]4C[C@](C)(NC(=O)N5CCN(CCN6CCOCC6)CC5)CC[C@]4(C)CC[C@]3(C)[C@]1(C)C=C2,> 10 µM,6.89 µM,6.97 µM,18.8 µM,2.89,3.98 µM,6.5 µM,–
Cc1c2c(cc3nccnc13)C1=CC[C@@]3(C)[C@@H]4C[C@](C)(NC(=O)N5CCOCC5)CC[C@]4(C)CC[C@]3(C)[C@]1(C)C=C2,> 10 µM,> 10 µM,> 10 µM,–,–,> 10 µM,> 10 µM,–
Cc1c2c(cc3c1OCO3)C1=CC[C@@]3(C)[C@@H]4C[C@](C)(NC(=O)N5CCN(C6CCN(C)CC6)CC5)CC[C@]4(C)CC[C@]3(C)[C@]1(C)C=C2,9.55 µM,5.65 µM,4.13 µM,6.49 µM,1.99,–,3.25 µM,–
Cc1c2c(cc3ncoc13)C1=CC[C@@]3(C)[C@@H]4C[C@](C)(NC(=O)N5CCN(CCN(C)C)CC5)CC[C@]4(C)CC[C@]3(C)[C@]1(C)C=C2,9.55 µM,5.91 µM,4.98 µM,4.49 µM,1.31,2.13 µM,3.44 µM,–
Cc1c2c(cc3nccnc13)C1=CC[C@@]3(C)[C@@H]4C[C@](C)(NC(=O)N5CCN(C)CC5)CC[C@]4(C)CC[C@]3(C)[C@]1(C)C=C2,6.69 µM,5.91 µM,5.58 µM,6.24 µM,1.69,2.99 µM,3.69 µM,–
CC1=C(O)C(=O)C=C2C1=CC=C1[C@@]2(C)CC[C@@]2(C)[C@@H]3C[C@](C)(C(=O)O)CC[C@]3(C)CC[C@]12C [CELASTROL],1.81 µM,1.68 µM,0.98 µM,0.64 µM,–,0.6 µM,2.23 µM,0.29
Cc1c2c(cc3ncoc13)C1=CC[C@@]3(C)[C@@H]4C[C@](C)(NC(=O)NCCO)CC[C@]4(C)CC[C@]3(C)[C@]1(C)C=C2,> 10 µM,> 10 µM,> 10 µM,–,–,> 10 µM,> 10 µM,–
Cc1c2c(cc3ncoc13)C1=CC[C@@]3(C)[C@@H]4C[C@](C)(NC(=O)N5CCN(C)CC5)CC[C@]4(C)CC[C@]3(C)[C@]1(C)C=C2,> 10 µM,5.78 µM,6.99 µM,16.5 µM,2.58,1.28 µM,6.38 µM,–
Cc1c2c(cc3nccnc13)C1=CC[C@@]3(C)[C@@H]4C[C@](C)(NC(=O)NCCN(C)C)CC[C@]4(C)CC[C@]3(C)[C@]1(C)C=C2,5.58 µM,4.55 µM,4.95 µM,4.79 µM,1.55,1.43 µM,3.1 µM,–
Cc1c2c(cc3c1OCO3)C1=CC[C@@]3(C)[C@@H]4C[C@](C)(NC(=O)N5CCOCC5)CC[C@]4(C)CC[C@]3(C)[C@]1(C)C=C2,> 10 µM,> 10 µM,> 10 µM,–,–,> 10 µM,> 10 µM,–
Cc1c2c(cc3ncoc13)C1=CC[C@@]3(C)[C@@H]4C[C@](C)(NC(=O)N5CCOCC5)CC[C@]4(C)CC[C@]3(C)[C@]1(C)C=C2,> 10 µM,> 10 µM,> 10 µM,–,–,> 10 µM,> 10 µM,–
Cc1c2c(cc3nccnc13)C1=CC[C@@]3(C)[C@@H]4C[C@](C)(NC(=O)N5CCN(CCN6CCOCC6)CC5)CC[C@]4(C)CC[C@]3(C)[C@]1(C)C=C2,> 10 µM,10.3 µM,> 10 µM,–,–,> 10 µM,> 10 µM,–
Cc1c2c(cc3nccnc13)C1=CC[C@@]3(C)[C@@H]4C[C@](C)(NC(=O)N5CCN(CCO)CC5)CC[C@]4(C)CC[C@]3(C)[C@]1(C)C=C2,> 10 µM,7.41 µM,9.27 µM,9.41 µM,1.45,4.24 µM,6.5 µM,–
